Source: US12661355B2, “Compounds and methods for inducing UCP1 expression” (The Regents of the University of California, priority 2020, dated 2026)

What was measured:
AKAP1 [1] = target: T1, AKAP1 (Rattus norvegicus, UniProt O88884); experiment: DARTS in H9c2 cell extracts, AKAP1; assay type: binding; conditions: 20 μM, 1 h
T1 construct: DARTS assay in H9c2 cell extracts treated with vehicle or 20 μM Z160 for 1 h; endogenous in cells; host or cells: rat H9c2 cells
Protocol: Rat H9c2 cells were grown in DMEM supplemented with 10% FBS, 25 mM glucose, 1 mM pyruvate, and 2 mM glutamine Neonatal rat ventricular myocytes (NRVM) were isolated and cultured as previously described. Briefly, 2-4 day old rats were sacrificed and myocytes and fibroblasts were isolated and separated using a Percoll density gradient. Following isolation, NRVMs were plated on gelatin-coated plates in DMEM containing 10% FBS, 25 mM glucose, 1 mM pyruvate, and 2 mM glutamine The next day, FBS was replaced by 1× insulin-transferrin-selenium supplement and the cells were treated with vehicle or 10 μM Z160 for 2 days, with or without 60 μM isoproterenol or 50 μM phenylephrine.
[…] assays were performed according to known methods. Briefly, BAT or cells within a 10 cm dish were lysed with 600 μl M-PER buffer containing protease and phosphatase inhibitors. Debris was pelleted by centrifugation at 18,000 g for 10 min at 4° C., and the lysates were harvested and supplemented with TNC buffer (50 mM Tris-HCl, 50 mM NaCl, 10 mM CaCl2). The lysates were split into two tubes and treated with either vehicle or 20 μM Z160 for 1 h at room temperature. For experiment with BAT, 100 μg of lysate was incubated with different Z160 concentrations. […]

AKAP1 [2] = target: T2, AKAP1 (Mus musculus, UniProt O08715); experiment: Cellular Thermal Shift Assay (CETSA) in brown adipocytes, AKAP1; assay type: binding; conditions: 10 μM for 8 h, heated at 55.8-63.3° C.
T2 construct: from tissue; host or cells: mouse brown adipose tissue (BAT) lysate; also mouse brown adipocyte extracts
T2 sequence (O08715 30-857): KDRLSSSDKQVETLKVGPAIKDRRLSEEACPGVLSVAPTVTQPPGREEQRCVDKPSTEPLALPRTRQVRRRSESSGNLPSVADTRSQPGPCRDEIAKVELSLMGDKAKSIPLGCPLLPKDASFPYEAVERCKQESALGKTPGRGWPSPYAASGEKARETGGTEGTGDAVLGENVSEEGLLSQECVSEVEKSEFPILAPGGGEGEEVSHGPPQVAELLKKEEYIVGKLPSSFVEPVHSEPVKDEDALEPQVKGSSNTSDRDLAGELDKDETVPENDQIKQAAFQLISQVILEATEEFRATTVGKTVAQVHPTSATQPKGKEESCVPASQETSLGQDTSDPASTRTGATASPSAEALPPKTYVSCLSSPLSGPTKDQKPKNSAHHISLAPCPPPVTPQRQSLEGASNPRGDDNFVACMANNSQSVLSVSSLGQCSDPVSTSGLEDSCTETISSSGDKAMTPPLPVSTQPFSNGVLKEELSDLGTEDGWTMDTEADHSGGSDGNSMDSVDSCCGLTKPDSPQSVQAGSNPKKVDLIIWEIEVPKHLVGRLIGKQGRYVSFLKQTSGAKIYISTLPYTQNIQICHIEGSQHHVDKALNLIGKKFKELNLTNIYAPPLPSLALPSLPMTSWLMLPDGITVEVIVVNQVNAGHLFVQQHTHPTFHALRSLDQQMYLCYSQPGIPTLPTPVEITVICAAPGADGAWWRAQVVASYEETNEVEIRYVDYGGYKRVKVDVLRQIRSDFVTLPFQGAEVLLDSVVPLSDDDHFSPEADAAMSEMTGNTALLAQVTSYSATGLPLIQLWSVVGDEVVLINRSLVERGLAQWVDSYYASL
Protocol: CETSA assays were performed according to known methods. Briefly, differentiated brown adipocytes (one 10 cm dish per treatment) were treated with vehicle or compounds, trypsinized, counted, and re-suspended in approximately 450 μl PBS containing protease inhibitors (volumes were adjusted to have the same number of cells in each treatment). For each sample, 18 μl was distributed into each of 7 PCR tubes. Samples were heated using a thermocycler with a temperature gradient (iCycler, Biorad) for 3 min, followed by 3 min at room temperature, and then snap-frozen in liquid N2. After two freeze-thaw cycles, samples were centrifuged at 20,000 g for 15 min at 4° C., and the supernatants were transferred to another set of tubes. Proteins were analyzed by immunoblotting.
The PKA tetramer consists of two catalytic and two regulatory subunits. In the mouse, these are catalytic subunits C-α and C-β, and regulatory subunits RI and RII, each with α and β isoforms (RI-α, RI-β, RII-α, RII-β). […]
The potential interaction of Z160 with PKA subunits and AKAPs was assessed first by identifying which PKA subunits and AKAP isoforms are normally present in BAT. […] To perform the CETSA assays, cultured brown adipocytes were incubated with 10 μM Z160 for 8 h, after which the thermal shift was analyzed by Western blot.

T1 sequence (O88884 30-854): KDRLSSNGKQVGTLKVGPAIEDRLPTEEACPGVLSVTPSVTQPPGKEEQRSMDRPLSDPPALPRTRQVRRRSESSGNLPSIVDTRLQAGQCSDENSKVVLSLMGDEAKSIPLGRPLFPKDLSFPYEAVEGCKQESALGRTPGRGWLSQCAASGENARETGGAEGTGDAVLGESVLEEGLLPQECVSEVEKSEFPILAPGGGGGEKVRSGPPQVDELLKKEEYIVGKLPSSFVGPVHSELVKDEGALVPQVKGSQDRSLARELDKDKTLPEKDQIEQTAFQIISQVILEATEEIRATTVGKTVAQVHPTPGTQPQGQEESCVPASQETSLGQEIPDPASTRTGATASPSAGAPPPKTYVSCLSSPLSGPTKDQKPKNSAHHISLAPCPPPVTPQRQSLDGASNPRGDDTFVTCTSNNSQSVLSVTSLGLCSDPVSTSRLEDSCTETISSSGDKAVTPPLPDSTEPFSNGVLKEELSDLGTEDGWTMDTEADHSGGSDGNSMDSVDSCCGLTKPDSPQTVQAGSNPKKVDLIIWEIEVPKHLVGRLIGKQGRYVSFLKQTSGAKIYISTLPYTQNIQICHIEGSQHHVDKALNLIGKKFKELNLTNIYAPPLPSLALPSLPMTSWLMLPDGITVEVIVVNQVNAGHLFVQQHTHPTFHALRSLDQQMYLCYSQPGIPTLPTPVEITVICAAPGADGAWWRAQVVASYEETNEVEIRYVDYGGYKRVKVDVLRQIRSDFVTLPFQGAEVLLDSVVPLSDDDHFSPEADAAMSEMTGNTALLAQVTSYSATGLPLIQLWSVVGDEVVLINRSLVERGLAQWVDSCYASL

COc1ccc(NC(=O)CSc2nc3ccccc3c(=O)[nH]2)c(OC)c1 [Z160]
pronase susceptibility of AKAP1 (AKAP1 [1]): not
heat stability of AKAP1 (AKAP1 [2]): increased the heat stability
